This is an account of results in ChEMBL document CHEMBL1135080, “Pyridazine based inhibitors of p38 MAPK” (Bioorg Med Chem Lett, 2002).

For assay [1], the target named is T1, MAP kinase p38 (Homo sapiens, UniProt O15264+Q15759+Q16539+P53778). As to the kind of experiment: Inhibition of Mitogen-activated protein kinase p38. It counts as protein assay.
The target in assay [2] is T1, MAP kinase p38. Kind of assay: Inhibition of Mitogen-activated protein kinase p38 at 1000 nM. Type of assay: protein assay.
For assay [3], the target named is Tyrosine-protein kinase Lck (Homo sapiens) (UniProt P06239). Kind of assay: Inhibition of LCK1 kinase at 15000 nM.
Tyrosine-protein kinase Lck (Homo sapiens), sequence (P06239 2-509 limits assumed): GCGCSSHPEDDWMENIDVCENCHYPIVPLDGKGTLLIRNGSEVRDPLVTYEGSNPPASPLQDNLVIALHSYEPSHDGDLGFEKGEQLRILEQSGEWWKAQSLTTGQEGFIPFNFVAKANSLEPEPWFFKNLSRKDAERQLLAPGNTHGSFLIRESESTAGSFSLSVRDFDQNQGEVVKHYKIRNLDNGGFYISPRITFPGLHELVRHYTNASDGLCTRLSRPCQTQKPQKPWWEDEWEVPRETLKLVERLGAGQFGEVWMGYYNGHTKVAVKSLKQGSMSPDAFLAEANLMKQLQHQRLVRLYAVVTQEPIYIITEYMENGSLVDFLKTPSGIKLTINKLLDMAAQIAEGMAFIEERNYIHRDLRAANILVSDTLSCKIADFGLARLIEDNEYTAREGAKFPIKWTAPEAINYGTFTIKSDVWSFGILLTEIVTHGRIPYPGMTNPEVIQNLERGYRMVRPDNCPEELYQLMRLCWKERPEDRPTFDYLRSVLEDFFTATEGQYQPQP
In assay [4] the target is T2, Mitogen-activated protein kinase 9 (Homo sapiens, UniProt P45984). Kind of assay: Inhibition of JNK2-alpha-2 kinase.
T2 sequence (P45984 whole entry): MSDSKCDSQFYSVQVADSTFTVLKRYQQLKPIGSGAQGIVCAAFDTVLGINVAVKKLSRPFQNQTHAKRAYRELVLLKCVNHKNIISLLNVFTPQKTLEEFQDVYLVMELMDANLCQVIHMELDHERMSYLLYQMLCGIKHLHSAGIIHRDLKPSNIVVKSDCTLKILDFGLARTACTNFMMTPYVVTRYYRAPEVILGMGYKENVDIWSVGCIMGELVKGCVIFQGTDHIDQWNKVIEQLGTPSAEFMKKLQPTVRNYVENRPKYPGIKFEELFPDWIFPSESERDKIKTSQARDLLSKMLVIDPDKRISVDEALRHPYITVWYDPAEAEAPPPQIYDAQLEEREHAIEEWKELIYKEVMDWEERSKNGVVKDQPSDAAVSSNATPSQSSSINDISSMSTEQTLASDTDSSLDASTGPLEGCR
The target in assay [5] is T2, Mitogen-activated protein kinase 9. As to the kind of experiment: Inhibition of JNK2-alpha-1 kinase.
The target in assay [6] is RAF proto-oncogene serine/threonine-protein kinase (Homo sapiens) (UniProt P04049). Kind of assay: Inhibition of c-Raf kinase at 5000 nM.
RAF proto-oncogene serine/threonine-protein kinase (Homo sapiens), sequence (P04049 whole entry): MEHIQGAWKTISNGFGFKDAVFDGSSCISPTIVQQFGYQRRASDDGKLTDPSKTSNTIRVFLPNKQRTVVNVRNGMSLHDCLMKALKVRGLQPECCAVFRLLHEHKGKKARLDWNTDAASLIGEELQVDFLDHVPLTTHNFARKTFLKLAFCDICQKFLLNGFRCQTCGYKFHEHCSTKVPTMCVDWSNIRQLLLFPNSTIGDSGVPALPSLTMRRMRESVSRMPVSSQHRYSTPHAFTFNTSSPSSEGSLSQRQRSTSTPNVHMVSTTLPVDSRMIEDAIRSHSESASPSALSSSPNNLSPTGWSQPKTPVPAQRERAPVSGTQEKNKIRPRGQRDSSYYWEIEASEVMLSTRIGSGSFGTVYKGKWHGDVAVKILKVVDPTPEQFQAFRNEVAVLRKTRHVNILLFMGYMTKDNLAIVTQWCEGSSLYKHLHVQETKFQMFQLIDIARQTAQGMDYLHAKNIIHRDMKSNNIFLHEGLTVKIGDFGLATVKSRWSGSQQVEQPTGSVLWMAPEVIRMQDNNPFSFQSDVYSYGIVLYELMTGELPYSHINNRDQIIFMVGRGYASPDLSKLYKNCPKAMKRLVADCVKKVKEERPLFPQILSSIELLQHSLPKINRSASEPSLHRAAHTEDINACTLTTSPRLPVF

`C[C@H](Nc1nccc(-c2cc(N3CCNCC3)nnc2-c2cccc(C(F)(F)F)c2)n1)c1ccccc1` registered an IC50 at MAP kinase p38 [1] of 0.6 nM.

Turning to `C[C@H](Nc1nccc(-c2cc(N3CCN(C)CC3)nnc2-c2cccc(C(F)(F)F)c2)n1)c1ccccc1`, the half-maximal inhibitory concentration (IC50) on MAP kinase p38 [1] was 1.9 nM. Turning to `C[C@H](Nc1nccc(-c2nnc(C3CCNCC3)cc2-c2cccc(C(F)(F)F)c2)n1)c1ccccc1`, the inhibition at MAP kinase p38 [2] was found to be 4.81%. For the compound `C[C@H](Nc1nccc(-c2cc(N3CCCCC3)nnc2-c2cccc(C(F)(F)F)c2)n1)c1ccccc1`, the IC50 against MAP kinase p38 [1] came to 20.1 nM. Regarding `C[C@H](Nc1nccc(-c2cc(N3CCOCC3)nnc2-c2cccc(C(F)(F)F)c2)n1)c1ccccc1`, the values for the inhibition in assay [3] and in assay [6] were 22% and 29%, respectively. In addition, the IC50 in assay [4] amounted to 1400 nM; in assay [5] it was 820 nM; at MAP kinase p38 [1], 2.6 nM.

On MAP kinase p38 [1], `C[C@H](Nc1nccc(-c2cc(N(C)CCN(C)C)nnc2-c2cccc(C(F)(F)F)c2)n1)c1ccccc1` yielded an IC50 of 1.4 nM.

Turning to `C[C@H](Nc1nccc(-c2nc(C3CCNCC3)n(C)c2-c2cccc(C(F)(F)F)c2)n1)c1ccccc1`, the 50% inhibitory concentration (IC50) against MAP kinase p38 [1] came out at 12000 nM.

Compound `CC1CCN(c2cc(-c3ccnc(N[C@@H](C)c4ccccc4)n3)c(-c3cccc(C(F)(F)F)c3)nn2)CC1` came in with a half-inhibitory concentration (IC50) against MAP kinase p38 [1] of 7.4 nM. Same read-out and setting: next, `C[C@H](Nc1nccc(-c2cc(N(C)C)nnc2-c2cccc(C(F)(F)F)c2)n1)c1ccccc1`: 2.5 nM.
